According to patent US20220162163A1, “ALANINE-BASED MODULATORS OF PROTEOLYSIS AND ASSOCIATED METHODS OF USE” (Arvinas Operations, Inc., priority 2015, published 2022):

Legend:
Assay type in all cases: cell-based
EZH2 = target: T1, EZH2 (Homo sapiens, UniProt Q15910); assay: Cellular assay of EZH2 degradation (MDA-MB-231 cells, Western blot); settings: EZH2, MDA-MB-231 cells, PROTAC concentration 3 μM, relative to DMSO control
T1 construct: endogenous in cells; host or cells: MDA-MB-231
Description: Protocol of the Cellular Assay of EZH2 Degradation (MDA-MB-231 Cells, Western Blot).
MDA-MB-231 cells were plated at 10,000 cells per well in 6 well plates, 2 ml/well in DMEM+10% Fetal Bovine Serum. Cells were allowed to grow for 3 days at 37 degrees C. Cells were dosed with PROTACs. On day 3 and day 7 after dosing, cells were harvested and lysed with RIPA buffer. Lysed cells were transferred to eppendorf tubes, and each lysate was sonicated and then spinned in microfuge for 15 minutes at 20,000×g at 4 degrees C. Supernatant was transferred to a clean tube, and protein concentration was quantitated using the Pierce BCA Protein Assay kit (cat #23225). Lysate concentrations were adjusted to 1 microgram/microliter in lysis buffer. For Western blot samples were loaded in 4×LDS buffer, 10 microliters/lane, onto Noxex NuPage 4-12% Bis-Tris Midi Gel […]×26 well.
Gels were run on BioRad power source Model 1000/500, at 200V constant voltage for 1 hour. Gels were then transferred onto a nitrocellulose membrane using an iBlot2 transfer apparatus from Life Technologies. Transfers were done on Program 0 and blocked for 1 hour in TBS-T (Tris Buffered Saline with 0.05% Tween 20)+5% BSA (Bovine Serum Albumin). Block solution was decanted, and the primary antibody solutions were added (EZH2-Cell Signaling #5246S; tri-methyl-Histone H3-Cell Signaling #9733S; Histone H3-Cell Signaling #4499; all diluted 1:1000 in 20 ml TBS-T+5% BSA). The preparation was placed in cold room (4 degrees C.) overnight on rocker platform, after which the antibody solution was decanted. The preparation was washed 3 times in TBS-T for 10 minutes each, and anti-rabbit secondary antibody (Cell Signaling #7074S), diluted 1:20,000 in TBS-T+5% BSA, was added. This was followed by incubating for 1 hour at room temperature with gentle rocking and washing 3 times in TBS-T. To develop blots SuperSignal™ West Femto Maximum Sensitivity Substrate (Life Technologies Catalog number: 34095) solution was applied for 5 minutes. Blots were imaged on BioRad ChemiDoc Imager using the “Chemi Hi Sensitivity” protocol. Bands were quantitated using Image Lab software v 5.2.1.

JNK2 = target: T2, JNK2 (Homo sapiens, UniProt P45984); assay: Cellular assay of JNK degradation (A549 cells, Western blot), JNK2; settings: for JNK2 degradation range: PROTAC concentration 1 μM, relative to DMSO control; for DC50: read-out: JNK2 DC50 range
T2 construct: A549 lung adenocarcinoma cells were purchased from ATCC and cultured in RPMI1640 Medium; endogenous in cells; host or cells: A549
Description: (§1) Protocol of the cellular assay of JNK degradation (A549 cells, Western blot). A549 lung adenocarcinoma cells were purchased from ATCC and cultured in RPMI1640 Medium (Gibco) supplemented with 10% Fetal Bovine Serum (Gibco). […] Cells were stimulated with PMA (Phorbol 12-myristate 13-acetate, Sigma) for 1 hour before harvesting. Cells were lysed in Cell Signaling lysis buffer supplemented with protease inhibitors (Thermo). The lysates were centrifuged at 20,000×g for 15 minutes to clarify, and protein concentration was determined by BCA (Pierce). Equal amounts of protein (5 micrograms) were separated by SDS-PAGE and transferred onto nitrocellulose membranes. The mermbranes were probed with antibodies against SAPK/JNK (Cell Signaling #9252), phospho-c-Jun (Cell Signaling #3270), MDM2 (Sigma M4308) and p53 (Cell Signaling #2527). HRP-conjugated anti-rabbit and anti-mouse secondary antibodies were from Cell Signaling. The bands were visualized with SuperSignal West Femto Substrate (Thermo). Quantitation was done using Image Lab Software v5.2.1.

JNK1 = target: T3, JNK1 (Homo sapiens, UniProt P45983); assay: Cellular assay of JNK degradation (A549 cells, Western blot), JNK1; settings: for JNK1 degradation range: PROTAC concentration 1 μM, relative to DMSO control; for DC50: read-out: JNK1 DC50 range
T3 construct: A549 lung adenocarcinoma cells were purchased from ATCC and cultured in RPMI1640 Medium; endogenous in cells; host or cells: A549
Description: as §1

T3 sequence (P45983 whole entry): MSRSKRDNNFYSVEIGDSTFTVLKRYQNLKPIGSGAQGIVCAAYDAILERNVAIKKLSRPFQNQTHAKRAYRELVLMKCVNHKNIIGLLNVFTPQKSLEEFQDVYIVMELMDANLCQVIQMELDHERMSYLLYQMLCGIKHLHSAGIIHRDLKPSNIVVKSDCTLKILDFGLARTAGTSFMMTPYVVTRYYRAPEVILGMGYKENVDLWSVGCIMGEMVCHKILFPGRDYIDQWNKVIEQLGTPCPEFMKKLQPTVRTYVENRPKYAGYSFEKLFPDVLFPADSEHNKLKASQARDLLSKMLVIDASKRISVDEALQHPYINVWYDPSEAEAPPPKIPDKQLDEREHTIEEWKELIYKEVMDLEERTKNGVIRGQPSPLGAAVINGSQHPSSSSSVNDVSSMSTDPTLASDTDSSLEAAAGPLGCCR
T1 sequence (Q15910 whole entry): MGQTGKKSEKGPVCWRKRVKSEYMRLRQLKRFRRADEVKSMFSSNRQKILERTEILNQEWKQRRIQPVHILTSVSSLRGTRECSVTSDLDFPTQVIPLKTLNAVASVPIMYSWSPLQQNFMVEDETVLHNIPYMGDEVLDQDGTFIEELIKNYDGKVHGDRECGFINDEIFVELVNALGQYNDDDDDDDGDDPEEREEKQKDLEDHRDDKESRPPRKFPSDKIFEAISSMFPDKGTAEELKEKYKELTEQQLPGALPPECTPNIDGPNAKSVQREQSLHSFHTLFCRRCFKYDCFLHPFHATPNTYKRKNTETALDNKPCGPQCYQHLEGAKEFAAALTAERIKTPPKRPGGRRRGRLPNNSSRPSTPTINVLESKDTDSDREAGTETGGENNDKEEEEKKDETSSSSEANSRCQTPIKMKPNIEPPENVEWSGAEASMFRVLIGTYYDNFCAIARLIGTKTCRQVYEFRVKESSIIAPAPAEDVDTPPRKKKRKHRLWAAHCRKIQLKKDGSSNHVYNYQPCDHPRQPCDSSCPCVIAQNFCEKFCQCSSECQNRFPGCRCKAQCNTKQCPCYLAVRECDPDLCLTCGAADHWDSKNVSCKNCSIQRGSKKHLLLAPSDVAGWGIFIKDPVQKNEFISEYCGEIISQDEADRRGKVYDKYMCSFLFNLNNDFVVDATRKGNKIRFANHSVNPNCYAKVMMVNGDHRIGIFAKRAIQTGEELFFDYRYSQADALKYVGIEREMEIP
T1 sequence (O75530 whole entry partner): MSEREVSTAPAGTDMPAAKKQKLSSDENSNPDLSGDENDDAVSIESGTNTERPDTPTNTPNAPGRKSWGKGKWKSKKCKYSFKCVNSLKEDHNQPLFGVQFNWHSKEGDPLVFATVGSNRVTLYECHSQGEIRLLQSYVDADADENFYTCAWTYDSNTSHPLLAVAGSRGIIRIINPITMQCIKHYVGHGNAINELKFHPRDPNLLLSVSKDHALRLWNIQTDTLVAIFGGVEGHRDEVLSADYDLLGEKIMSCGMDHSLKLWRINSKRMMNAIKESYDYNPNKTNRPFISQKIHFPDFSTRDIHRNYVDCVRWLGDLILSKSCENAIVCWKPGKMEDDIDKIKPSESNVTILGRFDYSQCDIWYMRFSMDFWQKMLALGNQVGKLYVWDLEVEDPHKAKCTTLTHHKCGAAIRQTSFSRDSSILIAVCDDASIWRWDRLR
T1 sequence (Q15022 whole entry partner): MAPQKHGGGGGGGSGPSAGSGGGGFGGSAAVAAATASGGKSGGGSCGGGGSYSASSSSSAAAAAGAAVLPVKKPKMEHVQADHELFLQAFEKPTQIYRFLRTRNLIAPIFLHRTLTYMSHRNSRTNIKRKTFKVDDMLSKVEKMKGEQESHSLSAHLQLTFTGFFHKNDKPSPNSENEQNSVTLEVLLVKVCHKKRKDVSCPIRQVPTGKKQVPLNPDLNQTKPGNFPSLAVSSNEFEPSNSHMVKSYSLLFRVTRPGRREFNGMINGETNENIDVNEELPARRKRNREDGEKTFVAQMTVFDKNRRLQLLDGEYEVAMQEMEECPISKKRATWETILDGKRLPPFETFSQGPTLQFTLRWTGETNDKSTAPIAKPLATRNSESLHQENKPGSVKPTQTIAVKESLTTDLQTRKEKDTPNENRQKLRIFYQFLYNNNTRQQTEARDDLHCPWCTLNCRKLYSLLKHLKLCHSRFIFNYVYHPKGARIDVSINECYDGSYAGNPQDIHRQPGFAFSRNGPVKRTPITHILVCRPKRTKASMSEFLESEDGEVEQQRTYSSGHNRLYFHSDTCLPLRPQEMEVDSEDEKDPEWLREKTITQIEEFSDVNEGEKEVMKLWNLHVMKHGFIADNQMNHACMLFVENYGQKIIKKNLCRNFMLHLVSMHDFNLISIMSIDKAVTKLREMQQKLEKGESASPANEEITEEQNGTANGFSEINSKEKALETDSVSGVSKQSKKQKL
T2 sequence (P45984 whole entry): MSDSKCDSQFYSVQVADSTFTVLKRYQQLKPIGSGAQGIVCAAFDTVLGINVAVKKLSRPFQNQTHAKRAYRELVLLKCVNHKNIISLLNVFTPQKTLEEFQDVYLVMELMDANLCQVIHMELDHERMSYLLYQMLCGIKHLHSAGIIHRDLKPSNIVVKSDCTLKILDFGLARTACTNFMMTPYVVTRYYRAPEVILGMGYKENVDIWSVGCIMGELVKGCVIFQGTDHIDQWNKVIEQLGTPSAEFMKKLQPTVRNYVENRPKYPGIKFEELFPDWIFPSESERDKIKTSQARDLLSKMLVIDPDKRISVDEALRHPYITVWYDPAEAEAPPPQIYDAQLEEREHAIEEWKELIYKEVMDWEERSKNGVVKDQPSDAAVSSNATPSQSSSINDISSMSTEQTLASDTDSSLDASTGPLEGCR

Row | SMILES | Target protein degradation range (EZH2) | JNK2 degradation range (JNK2) | JNK1 degradation range (JNK1) | DC50 (JNK1) | DC50 (JNK2)
1 | CCN(c1cc(-c2ccc(OCCOCCOCCOc3ccc(CCN4CC[C@H]5CCN(C(=O)[C@@H](NC(=O)[C@H](C)NC)C6CCCCC6)[C@H]5C4)cc3)cc2)cc(C(=O)NCc2c(C)cc(C)[nH]c2=O)c1C)C1CCOCC1 (racemic) [Example 9, 5-[4-(2-[2-[2-(4-[2-[1-[(2S)-2-cyclohexyl-2-[(2S)-2-(methylamino)propanamido]acetyl]-octahydro-1H-pyrrolo[2,3-c]pyridin-6-yl]ethyl]phenoxy)ethoxy]ethoxy]ethoxy)phenyl]-N-[(4,6-dimethyl-2-oxo-1,2-dihydropyridin-3-yl)methyl]-3-[ethyl(oxan-4-yl)amino]-2-methylbenzamide] | C (degradation between 0% and 30%) |  |  |  | 
2 | CCN(c1cc(-c2ccc(OCCOCCOCCOCCOCCOc3ccc(-c4csc([C@@H]5CCCN5C(=O)[C@@H](NC(=O)[C@H](C)NC)C5CCCCC5)n4)c4ccccc34)cc2)cc(C(=O)NCc2c(C)cc(C)[nH]c2=O)c1C)C1CCOCC1 [Example 11, 5-(4-[[1-(4-[2-[(2S)-1-[(2S)-2-cyclohexyl-2-[(2S)-2-(methylamino)propanamido]acetyl]pyrrolidin-2-yl]-1,3-thiazol-4-yl]naphthalen-1-yl)-1,4,7,10,13-pentaoxapentadecan-15-yl]oxy]phenyl)-N-[(4,6-dimethyl-2-oxo-1,2-dihydropyridin-3-yl)methyl]-3-[ethyl(oxan-4-yl)amino]-2-methylbenzamide] | B (degradation between 30% and 60%) |  |  |  | 
3 | CN[C@@H](C)C(=O)N[C@H](C(=O)N1CCC[C@H]1c1nc(-c2ccc(OCCOCCOCCOCCOC3CCC(Nc4nccc(-c5cnn(Cc6ccccc6)c5N(C)C)n4)CC3)c3ccccc23)cs1)C1CCCCC1 (stereo partly drawn) [Example 15, (2S)—N-[(1S)-1-cyclohexyl-2-oxo-2-[(2S)-2-[4-[4-([1-[(1r,4r)-4-([4-[1-benzyl-5-(dimethylamino)-1H-pyrazol-4-yl]pyrimidin-2-yl]amino)cyclohexyl]-1,4,7,10-tetraoxadodecan-12-yl]oxy)naphthalen-1-yl]-1,3-thiazol-2-yl]pyrrolidin-1-yl]ethyl]-2-(methylamino)propanamide] |  | B (degradation between 30% and 60%) | A (degradation more than 60%) | 100 to 1000 nM | 
4 | CN[C@@H](C)C(=O)N[C@H](C(=O)N1CC[C@@H]2CCN(CCc3ccc(OCCOCCOC4CCC(Nc5nccc(-c6cnn(Cc7ccccc7)c6N(C)C)n5)CC4)cc3)C[C@@H]21)C1CCCCC1 (mixture of isomers) [Example 17, (2S)—N-[(1S)-1-cyclohexyl-2-oxo-2-[6-(2-[4-[2-(2-[[(1r,4r)-4-([4-[1-benzyl-5-(dimethylamino)-1H-pyrazol-4-yl]pyrimidin-2-yl]amino)cyclohexyl]oxy]ethoxy)ethoxy]phenyl]ethyl)-octahydro-1H-pyrrolo[2,3-c]pyridin-1-yl]ethyl]-2-(methylamino)propanamide] |  | A (degradation more than 60%) | A (degradation more than 60%) | 100 to 1000 nM | 100 to 1000 nM
5 | CN[C@@H](C)C(=O)N[C@H](C(=O)N1CC[C@@H]2CCN(CCc3ccc(OCCOCCOCCOC4CCC(Nc5nccc(-c6cnn(Cc7ccccc7)c6N(C)C)n5)CC4)cc3)C[C@@H]21)C1CCCCC1 (mixture of isomers) [Example 18, (2S)—N-[(1S)-1-cyclohexyl-2-oxo-2-[6-[2-(4-[2-[2-(2-[[(1r,4r)-4-([4-[1-benzyl-5-(dimethylamino)-1H-pyrazol-4-yl]pyrimidin-2-yl]amino)cyclohexyl]oxy]ethoxy)-ethoxy]ethoxy]phenyl)ethyl]-octahydro-1H-pyrrolo[2,3-c]pyridin-1-yl]ethyl]-2-(methylamino)propanamide] |  | A (degradation more than 60%) | A (degradation more than 60%) | 1 to 100 nM | 100 to 1000 nM
6 | CCN(c1cc(-c2ccc(OCCOCCOCCOc3ccc(-c4csc([C@@H]5CCCN5C(=O)[C@@H](NC(=O)[C@H](C)NC)C5CCCCC5)n4)c4ccccc34)cc2)cc(C(=O)NCc2c(C)cc(C)[nH]c2=O)c1C)C1CCOCC1 [Example 10, 5-[4-[2-(2-[2-[(4-[2-[(2S)-1-[(2S)-2-cyclohexyl-2-[(2S)-2-(methylamino)propanamido]acetyl]pyrrolidin-2-yl]-1,3-thiazol-4-yl]naphthalen-1-yl)oxy]ethoxy]ethoxy)ethoxy]phenyl]-N-[(4,6-dimethyl-2-oxo-1,2-dihydropyridin-3-yl)methyl]-3-[ethyl(oxan-4-yl)amino]-2-methylbenzamide] | B (degradation between 30% and 60%) |  |  |  | 
7 | CN[C@@H](C)C(=O)N[C@H](C(=O)N1CCC[C@H]1c1nc(-c2ccc(OCCOCCOCCOC3CCC(Nc4nccc(-c5cnn(Cc6ccccc6)c5N(C)C)n4)CC3)c3ccccc23)cs1)C1CCCCC1 (stereo partly drawn) [Example 14, (S)—N—((S)-2-((S)-2-(4-(4-(2-(2-(2-((1r,4r)-4-(4-(1-benzyl-5-(dimethylamino)-1H-pyrazol-4-yl)pyrimidin-2-ylamino)cyclohexyloxy)ethoxy)ethoxy)ethoxy)naphthalen-1-yl)thiazol-2-yl)pyrrolidin-1-yl)-1-cyclohexyl-2-oxoethyl)-2-(methylamino)propanamide] |  | B (degradation between 30% and 60%) | A (degradation more than 60%) | 1 to 100 nM | 
8 | CCN(c1cc(-c2ccc(OCCOCCOCCOCCOCCOc3ccc(CCN4CC[C@H]5CCN(C(=O)[C@@H](NC(=O)[C@H](C)NC)C6CCCCC6)[C@H]5C4)cc3)cc2)cc(C(=O)NCc2c(C)cc(C)[nH]c2=O)c1C)C1CCOCC1 (racemic) [Example 8, 5-(4-[[1-(4-[2-[1-[(2S)-2-cyclohexyl-2-[(2S)-2-(methylamino)propanamido]acetyl]-octahydro-1H-pyrrolo[2,3-c]pyridin-6-yl]ethyl]phenyl)-1,4,7,10,13-pentaoxapentadecan-15-yl]oxy]phenyl)-N-[(4,6-dimethyl-2-oxo-1,2-dihydropyridin-3-yl)methyl]-3-[ethyl(oxan-4-yl)amino]-2-methylbenzamide] | C (degradation between 0% and 30%) |  |  |  | 
